Data set [1] concerns Rattus norvegicus. In words: Ulcerogenicity in albino Wistar rat assessed as ulcer index at 100 mg/kg, po after 20 hrs. The class given is toxicity, organism-based. To be noted: in vivo.
For data set [2], the system named is Rattus norvegicus. In words: Anti-inflammatory activity in albino Wistar rat assessed as inhibition of carrageenan-induced paw edema at 30 mg/kg, po measured every one hour for 5 hrs. The class given is functional. (In general: Carrageenan injected into the paw causes an acute inflammation.)
The test system of data set [3] is Rattus norvegicus. In words: Anti-inflammatory activity in albino Wistar rat assessed as inhibition of carrageenan-induced paw edema at 25 mg/kg, po measured every one hour for 5 hrs. The class given is functional.
Data set [4] relates to Rattus norvegicus. In words: Anti-inflammatory activity in albino Wistar rat assessed as inhibition of carrageenan-induced paw edema at 50 mg/kg, po measured every one hour for 5 hrs. The class given is functional.
In data set [5] the test system is Rattus norvegicus. In words: Ulcerogenicity in albino Wistar rat assessed as ulcer index at 50 mg/kg, po after 20 hrs. The class given is toxicity, organism-based. To be noted: in vivo.
The nature of data set [6]: Ratio of IC50 for human COX2 to IC50 for ovine COX1 by prostaglandin biosynthesis assay.

In general, inhibition in vivo refers to the change of the read-out against control, counted positive when it falls. Take `O=C(O)Cc1ccccc1Nc1c(Cl)cccc1Cl` [DICLOFENAC]: the UI with Rattus norvegicus [1] was 5.7. In addition, the inhibition in vivo at 30 mg/kg in the data set on Rattus norvegicus [2] amounted to 85.3%.
Turning to `Nc1nc(-c2ccccc2)c2c(n1)-c1ccccc1C2=O`, the inhibition in vivo at 25 mg/kg in the data set with Rattus norvegicus [3] was 76.7%. Further, the inhibition in vivo at 50 mg/kg in the data set with Rattus norvegicus [4] is 80.7%. In addition, in the data set on Rattus norvegicus [5], the UI amounted to 3.
For the compound `Nc1nc(-c2ccc([N+](=O)[O-])cc2)c2c(n1)-c1ccccc1C2=O`, in the data set with Rattus norvegicus [3], the inhibition in vivo at 25 mg/kg is 77.3%. Also, the inhibition in vivo at 50 mg/kg in the data set on Rattus norvegicus [4] came to 81.3%. Besides, the UI with Rattus norvegicus [5] was found to be 2.9.
For `COc1cc(-c2nc(N)nc3c2C(=O)c2ccccc2-3)cc(OC)c1OC`, the inhibition in vivo at 25 mg/kg with Rattus norvegicus [3] worked out at 75.3%. For the same compound, the Ratio IC50 in data set [6] came out at 0.69. Also, the inhibition in vivo at 50 mg/kg in the data set with Rattus norvegicus [4] came to 78.7%. For the same compound, the UI in the data set with Rattus norvegicus [5] was found to be 2.8.
`Nc1nc(-c2cccc([N+](=O)[O-])c2)c2c(n1)-c1ccccc1C2=O`: the inhibition in vivo at 25 mg/kg in the data set with Rattus norvegicus [3] amounted to 76%. The Ratio IC50 in data set [6] amounted to 0.7. Moreover, in the data set on Rattus norvegicus [4], the inhibition in vivo at 50 mg/kg stood at 79.3%. In the data set with Rattus norvegicus [5], the UI was 2.9.
As for `Cc1ccc(-c2cc(C(F)(F)F)nn2-c2ccc(S(N)(=O)=O)cc2)cc1`, the Ratio IC50 in data set [6] is 0.04.
`Nc1nc(-c2ccc(Cl)cc2)c2c(n1)-c1ccccc1C2=O`: the inhibition in vivo at 25 mg/kg in the data set with Rattus norvegicus [3] is 76%. Further, the Ratio IC50 in data set [6] was 0.7. Moreover, in the data set with Rattus norvegicus [4], the inhibition in vivo at 50 mg/kg turned out to be 78%. Further, the UI with Rattus norvegicus [5] stood at 3.
The corresponding values for `Nc1nc(-c2ccc(Br)cc2)c2c(n1)-c1ccccc1C2=O` are 76.7%, 0.69, 80% and 2.9.
On to `COc1cccc(-c2nc(N)nc3c2C(=O)c2ccccc2-3)c1`, for which the inhibition in vivo at 25 mg/kg in the data set with Rattus norvegicus [3] was 75.3%. The Ratio IC50 in data set [6] was found to be 0.68. The inhibition in vivo at 50 mg/kg in the data set on Rattus norvegicus [4] stood at 78%. Besides, the UI in the data set on Rattus norvegicus [5] turned out to be 2.9.

The values above are taken from ChEMBL document CHEMBL3751682, “Synthesis, anti-inflammatory, ulcerogenic and cyclooxygenase activities of indenopyrimidine derivatives” (Bioorg Med Chem Lett, 2016).
